The nature of series [1]: Example 2 case: obese person, bupropion then zonisamide added. It is filed as in vivo, human. Here is the method: At this point, zonisamide was added to the regimen at 100 mg/day and the dose was increased after 2 weeks to 200 mg/day. […] No further information is available as the patient has relocated.
For series [2] the following is noted: epileptic patients taking other concomitant AEDs; small percent of patients; cited from earlier work.
A short description of series [3]: optional 16-week single-blinded extension phase (to Week 32), zonisamide vs placebo in obese subjects. It is filed as in vivo, human. As to conditions: Week 32, versus placebo; p<0.0030, p<0.0651, p<0.0019, P<0.0005.
Series [4] in a line: Example 4 case: obese person, zonisamide then bupropion added. It is filed as in vivo, human. Here is the method:
An obese person received zonisamide in a clinical trial and achieved weight loss of 35.6 lb over 32 weeks. During the 5 weeks following discontinuation of zonisamide, they gained 7.7 lb. Zonisamide was restarted, but this intervention was unsuccessful in offsetting the regained weight; after 16 weeks of therapy at doses up to 400 mg/d, the patient gained 1.2 lb.

A short description of series [5]: Example 3 case: obese person, zonisamide then bupropion SR added. It is filed as in vivo, human. Here is the method: An obese person (weight 246 lb, BMI 41.4 kg/m^2) who had not benefited from various treatments, was started on zonisamide 100 mg/day and the dose was increased gradually to 400 mg a day over the next 4 weeks. […] At this point, zonisamide dose was increased to 600 mg a day; the patient achieved an additional weight loss of 0.6 lb in the next month. Thus, after 3 months of zonisamide therapy, the total weight loss with zonisamide therapy was 5.2 lb. […] They reported that they felt “full” after eating small portions of food, and had more energy.

Series [6] can be described thus: 16-week randomized, double blind acute phase, zonisamide vs placebo in obese subjects. Format: in vivo, human. The source says: Sixty-eight subjects were screened for participation and 60 subjects were randomized.
Inclusion criteria were: male or female, aged 21-50 years, with body mass index (BMI) of ≧30 kg/m^2.
(§1) The study had two phases. The first was the acute phase—a 16-week, randomized, double blind, parallel-group comparison of zonisamide (ZON) and placebo (PBO). This was followed by an optional 16-week extension phase. At the end of the acute phase, subjects wishing to continue further received the same treatment for an additional 16 weeks in a single-blinded fashion.
The subjects were randomized in a 1:1 ratio to receive zonisamide or placebo capsules. Study medication was dispensed under blinded conditions through computer-based randomization. The randomization was generated using a random number table with a block size of ten. There was no stratification by gender or other demographics. The study investigators were blind to the “blocking” method used by the pharmacy. The treatment assignment codes were not available to the investigators until all subjects completed the acute phase, the data were entered, and the database for this phase was locked, meaning that no further changes could be made to the data.
The study medication was dispensed in the form of capsules. Each capsule contained either 100 milligrams zonisamide or placebo. The capsules were made to look identical. The dose escalation was as follows: one capsule (zonisamide 100 mg or placebo) every evening for the first 2 weeks; two capsules (zonisamide 200 mg or placebo) every evening during Weeks 3 and 4; three capsules (zonisamide 300 mg or placebo) every evening during Weeks 5 and 6; and, four capsules (zonisamide 400 mg or placebo) every evening from Week 7 onward. At Week 12, the dose could be increased further to six capsules (zonisamide 600 mg or placebo) every evening for subjects who had not lost at least 5% of their initial body weight. If a subject preferred not to take all six capsules at one time, taking a half of the daily dose in the morning was an option. Based on tolerability, dose escalation could be withheld, or the dose might also be decreased. Medication compliance was overseen by recording the number of tablets returned and comparing this number to the number of capsules dispensed at each visit.
Subjects in both treatment groups were instructed to follow an individual diet that was 500 Kcal/day less than what they needed to maintain their weight. The prescribed diet, based on eating a variety of foods from the Food Guide Pyramid, emphasized decreasing portions, eating more fruits and vegetables, and drinking 8 cups of water each day. Increased physical activity was also encouraged for subjects in both groups. Subjects were asked to record their dietary intake including portion sizes in food diaries, which were provided to them. A registered dietician reviewed food diaries and provided counseling to all subjects. Subjects were encouraged to make healthy changes in their diets and physical activity that could be maintained after the completion of the study.
(§2) During each visit, the following assessments were performed: blood pressure, heart rate, weight, dietary compliance, medication accountability and tolerability, and adverse effects. Body weight was measured on a calibrated electronic scale to the nearest 0.1 kilogram. A registered dietitian reviewed food diaries and assessed dietary compliance. Adverse effects were gathered via spontaneous reporting by subjects as well as open-ended inquiries by the clinicians.
In addition to the above, the subjects completed the Impact of Weight on Quality of Life (IWQOL) (Kolotin et al, Obesity Res. 3:49-56 (1995)) at baseline, Week 8, and Week 16. The IWQOL is a self-report measure with 74 items that assess the perceived effect of weight on quality of life in the following domains (subscales)—health, social/interpersonal life, work, mobility, self-esteem, sexual life, activities of daily living, and eating (comfort with food). […]

Series [7] is described as follows: optional 16-week single-blinded extension phase (to Week 32), zonisamide vs placebo in obese subjects. It is filed as in vivo, human. The conditions noted are these: for mean weight loss at Week 32: placebo 1.82% (0.73%). Here is the method:
as §1, §2
In addition to the above, the subjects completed the Impact of Weight on Quality of Life (IWQOL) (Kolotin et al, Obesity Res. 3:49-56 (1995)) at baseline, Week 8, and Week 16. The IWQOL is a self-report measure with 74 items that assess the perceived effect of weight on quality of life in the following domains (subscales)—health, social/interpersonal life, work, mobility, self-esteem, sexual life, activities of daily living, and eating (comfort with food). Improvement with treatment is reflected by decreasing scores on all the subscales with the exception of the eating (comfort with food) subscale, which is expected to show less comfort around food with effective treatment. Body composition (fat and lean masses) and bone mineral density (BMD) were determined, at baseline and Week 32, by dual x-ray absorptiometry (DXA; Hologic 2000, Waltham, Mass.). All DXA measurements were gathered using the same equipment and techniques. Subjects were instructed to fast for 8 hours and not to drink water or other beverages for at least 4 hours prior to DXA measurement.
Weight change during the study was assessed in terms of actual weight change over the six study intervals using multivariable regression methodology, and as a dichotomous outcome of ‘response,’ i.e., 5% weight loss at Week 16, and 5% and 10% weight loss at Week 32. The proxy variables denoting response status were tested across treatment conditions again using Fisher's exact test. Three multivariable regression analyses were conducted. In the first, body weight at each time point was modeled using a random effects growth curve model. Heuristically, the model fits a regression line for each subject using available data points, thus maximizing use of actual data. For the second set of analyses, body weights were regressed as above with missing observations carried forward from the last recorded weight based on an intent-to-treat approach (LOCF). The final model was restricted to the subset of respondents with no missing data (completers).
Secondary analyses were conducted over three general areas of interest. In each case, analyses were based on 2×2 repeated measures ANOVAs that included time, drug condition, and their interaction (time-by-drug). The primary interest in each instance was to determine if subjects in the zonisamide condition were differentially affected relative to controls as operationally determined by testing the significance of the estimated interaction term. Tests in first area of interest focused on clinical indicators including levels of creatinine, glucose, triglycerides, high and low density lipoproteins (all assessed at baseline and study conclusion), waist measurements (baseline, Week 8 and Week 16), blood pressure (systolic and diastolic), and heart rate. The second general area of sampled quality of life indicators including activities of daily living, appetite, esteem, health, interpersonal relations, mobility, sex, and work using the IWQOL Scale; repeated measurements were taken at baseline, Week 8, and Week 16). The final set of secondary analyses sampled hunger and appetite using the Visual Analogue Scale for Hunger and Food Cravings. […]

`CC(NC(C)(C)C)C(=O)c1cccc(Cl)c1` (centres unmarked) [bupropion] had a net weight loss in series [1] (after 2 months on bupropion) of 1.6 lbs. This molecule also came in with a weight lost in series [1] (after one month, bupropion 150 mg twice a day, start weight 271 lb) of 5 lbs. Further, in series [1] (during the second month on bupropion), the weight regained is listed as 3.4 lbs.
Turning to `NS(=O)(=O)Cc1noc2ccccc12` [zonisamide], in series [2], the “weight loss observed as an adverse effect” value is listed as “a small degree of weight loss”. Moreover, in series [3], the “Impact of Weight on Quality of Life (IWQOL): Health, Work, Mobility, Activities of Daily Living” value is “improved more significantly”. The “weight gained on restarted therapy” value in series [4] (after 16 weeks of restarted zonisamide at doses up to 400 mg/d) was 1.2 lb. Besides, the “weight gained following discontinuation” value in series [4] (during the 5 weeks following discontinuation of zonisamide) is listed as 7.7 lb. The weight loss in series [4] (over 32 weeks, zonisamide in a clinical trial) came to 35.6 lb. For the same molecule, the total weight loss in series [5] (after 3 months of zonisamide therapy) is 5.2 lb. The weight lost in series [5] (after one month, zonisamide up to 400 mg a day, start weight 246 lb) came to 4.6 lbs. The molecule further gave an additional weight loss in series [5] (in the next month, zonisamide 600 mg a day) of 0.6 lb. Moreover, the “weight change during the second month” value in series [5] (zonisamide 400 mg a day) is “no further weight loss”. Also, in series [6] (16 weeks, overall sample decreased approximately 2 beats/min), the “heart rate change versus placebo” value is listed as “no difference between the groups”. Moreover, in series [6] (ITT-LOCF, baseline 98.17 (2.5) kg, placebo 97.75 to 96.86 kg), the “absolute weight at Week 16” value is recorded as 92.28 (2.47) kg. For the same molecule, in series [6] (ITT-LOCF, placebo 0/30, p<0.0053), the “subjects achieving >=10% weight loss at Week 16” value is reported as 7/30. Also, the “subjects achieving >=5% weight loss at Week 16 (number)” value in series [6] (ITT-LOCF, placebo 3 of 30, p<0.0003) was 17 of 30. Besides, the “subjects achieving >=5% weight loss at Week 16 (percent)” value in series [6] (ITT-LOCF, placebo 10%) is 57%. Moreover, the “predicted weight loss per week (drug-by-time interaction regression coefficient)” value is listed as 0.29 kg/wk in series [6] (LOCF intent-to-treat imputation); more than 0.3 kg in series [6] (likelihood imputed model, versus placebo); 0.21 kg/wk in series [6] (model based only on complete-data subjects). The “mean (SE) estimated weight loss” value in series [6] (Week 16, ITT analysis with LOCF, n=30, placebo 1.02% (0.40%), p<0.0001) is recorded as 5.98%. Also, the “serum creatinine after treatment” value is recorded as 0.92 (0.03) mg/dL in series [6] (acute phase, baseline 0.79 (0.03) mg/dL, placebo 0.76 to 0.79) and 0.92 (0.03) mg/dL in series [7] (extension phase subjects, baseline 0.78 (0.03) mg/dL, placebo 0.75 to 0.77). Also, the “systolic and diastolic blood pressure readings” value in series [6] (by four months) is on record as “did not change”. The “weight loss, subjects completing the 16-week acute phase” value in series [6] (completers, Week 16, placebo 1.30% (0.49%)) came to 6.61%. Further, the “increase in serum creatinine” value in series [6] (no further increase in the extension phase, no value exceeded upper limit of normal) is recorded as “approximately 16%”. The subjects reporting fatigue in series [6] (of 30, placebo 1, p<0.006) stood at 10 subjects. In series [6] (over the study period, placebo 1.6, p<0.125), the “adverse effects (AEs) reported per subject, average” value was found to be 2.1. Further, the tolerability result in series [6] (whole study) is given as “generally well tolerated”. Besides, the “bone mineral density at lumbar vertebrae (L-BMD)” value in series [7] (DXA, baseline vs Week 32) is given as “did not change over time”. Besides, the “total bone mineral density” value in series [7] (DXA, baseline vs Week 32, both groups, no difference between groups, not clinically significant) was “small, but statistically significant (p<0.017) increase”. Moreover, the mean lipid values entry in series [7] (either treatment, significant reductions for some subjects) was “No clinically significant changes”. In addition, in series [7] (for the duration of treatment in this study (approximately 8 months)), the “estimated rate of occurrence of kidney stones” value is 62.5 per 1000 patient-years of exposure. In addition, the “absolute weight at Week 32” value in series [7] (from 96.88 (3.01) kg, placebo 96.39 to 94.85 kg) was 87.64 (2.95) kg. Besides, in series [7] (none of the placebo subjects, p<0.0004), the “subjects who lost >=10% weight at Week 32” value is “Ten of 19”. In addition, in series [7] (over 32 weeks), the heart rate result is listed as “no significant change”. Also, the figures for the “mean weight loss at Week 32” value in series [7] and in series [7] (listed as Zonisamide) were 9.4% and 9.37%, respectively.

The values above are taken from patent US7754748B2, “Method for treating obesity” (Duke University, priority 2002, dated 2010).
